For this experiment, the system named is glatte Muskelzellen. Nature of the experiment: Inhibition of proliferation of smooth muscle cells (3H-thymidine incorporation). It is filed as cell-based, Ratten. Particulars: half-maximal inhibition of thymidine incorporation induced by 10% FCS; rat aortic smooth muscle cells; read-out: IC₅₀. The protocol:
Untersuchung zur Inhibition der Proliferation glatter Muskelzellen durch die erfindungsgemäßen Verbindungen
Zur Feststellung der antiproliferativen Wirkung der Verbindungen werden glatte Muskelzellen verwendet, die aus den Aorten von Ratten durch die Media-Explantat-Technik gewonnen werden [R. Ross, J. Cell. Biol. 50, 172, 1971]. Die Zellen werden in geeigneten Kulturschalen, in der Regel 96-Loch-Platten, ausgesät und für 2 - 3 Tage in Medium 199 mit 7,5% FCS und 7,5% NCS, 2 mM L-Glutamin und 15 mM HEPES, pH 7,4 in 5% CO₂ bei 37°C kultiviert. Danach werden die Zellen durch Serumentzug für 2 - 3 Tage synchronisiert und sodann mit Serum zum Wachstum angeregt. Gleichzeitig werden Testverbindungen zugesetzt. Nach 16 - 20 Stunden wird 1 µCi ³H-Thymidin zugefügt und nach weiteren 4 Stunden der Einbau dieser Substanz in die TCA-präzipitierbare DNA der Zellen bestimmt Zur Bestimmung der IC₅₀₋Werte wird die Wirkstoffkonzentration errechnet, die bei sequentieller Verdünnung des Wirkstoffes halbmaximale Hemmung der durch 10% FCS hervorgerufene Thymidininkorporation bewirkt. Tabelle B
On the technique in general: Incorporation of labelled thymidine or its analogues reports DNA synthesis.

SMILES strings stand for the structures.

For the compound `CCCCc1nc(Cl)c(CO)n1Cc1ccc(C(C(=O)NC(C(N)=O)c2ccccc2)C2CCCC2)cc1` (centres unmarked) [Beispiel 6, 2-{2-[4-(2-Butyl-4-chlor-5-hydroxymethyl-imidazol-1-yl-methyl)phenyl]-2-cyclopentyl}acetamido-2-phenyl-acetamid], the IC50 was determined as 0.2 nM.
Turning to `CCCCc1nc(Cl)c(C=O)n1Cc1ccc(C(C(=O)NC(C(N)=O)c2ccccc2)C2CCCC2)cc1` (centres unmarked) [Beispiel 1, 2-{2-[4-(2-Butyl-4-chlor-5-formyl-imidazol-1-yl-methyl)phenyl]-2-cyclopentyl}-acetamido-2-phenyl-acetamid], the IC50 turned out to be 1 nM.

For the origin of these results see EP0622358A1, “Phenylglycinamides of 4-imidazolylmethyl-phenyl-acetic acids and their use against hypertension and atherosclerosis” (BAYER AG, priority 1993, dated 1994).
